Reference: paper PMC9116259, “Discovery of new nicotinamides as apoptotic VEGFR-2 inhibitors: virtual screening, synthesis, anti-proliferative, immunomodulatory, ADMET, toxicity, and molecular dynamic simulation studies” (Journal of Enzyme Inhibition and Medicinal Chemistry, 2022)

Experiments:
HCT-116 cells [1] = test: In vitro anti-proliferative activity, MTT test, HCT-116; type: cell-based; settings: Homo sapiens, read-out: In vitro cytotoxicity IC50 HCT-116
Method: (§1) The in vitro anti-proliferative effects of the four synthesised members were assessed against two cancer cell lines namely, hepatocellular carcinoma (HepG-2) and colorectal carcinoma (HCT-116) cell lines, by the standard MTT test[29]. HepG-2 and HCT-116 cell lines were precisely selected relying on their VEGF overexpression. […] The cytotoxicity results were established in Table 7.
(§2) The anti-proliferative activity of the four members was estimated by the MTT protocol as described[38–41] (Supplementary data).

HepG-2 cells = test: In vitro anti-proliferative activity, MTT test, HepG-2; type: cell-based; settings: for IC50: Homo sapiens, HepG2, MTT, HepG-2, read-out: In vitro cytotoxicity IC50 HepG-2
Method: as §1, §2

VEGFR-2 = target: T1, VEGFR-2 (Homo sapiens, UniProt P35968); test: Assessment of VEGFR-2 inhibition in HCT-116 cells; type: cell-based; settings: HCT-116 cells treated at concentrations equal to the cytotoxic ones; read-out: VEGFR-2 protein concentration (called VEGFR-2 inhibitory IC50 in text)
T1 construct: in vitro investigation against VEGFR-2 in HCT-116 cells; endogenous in cells; host or cells: HCT-116
T1 sequence (P35968 20-1356): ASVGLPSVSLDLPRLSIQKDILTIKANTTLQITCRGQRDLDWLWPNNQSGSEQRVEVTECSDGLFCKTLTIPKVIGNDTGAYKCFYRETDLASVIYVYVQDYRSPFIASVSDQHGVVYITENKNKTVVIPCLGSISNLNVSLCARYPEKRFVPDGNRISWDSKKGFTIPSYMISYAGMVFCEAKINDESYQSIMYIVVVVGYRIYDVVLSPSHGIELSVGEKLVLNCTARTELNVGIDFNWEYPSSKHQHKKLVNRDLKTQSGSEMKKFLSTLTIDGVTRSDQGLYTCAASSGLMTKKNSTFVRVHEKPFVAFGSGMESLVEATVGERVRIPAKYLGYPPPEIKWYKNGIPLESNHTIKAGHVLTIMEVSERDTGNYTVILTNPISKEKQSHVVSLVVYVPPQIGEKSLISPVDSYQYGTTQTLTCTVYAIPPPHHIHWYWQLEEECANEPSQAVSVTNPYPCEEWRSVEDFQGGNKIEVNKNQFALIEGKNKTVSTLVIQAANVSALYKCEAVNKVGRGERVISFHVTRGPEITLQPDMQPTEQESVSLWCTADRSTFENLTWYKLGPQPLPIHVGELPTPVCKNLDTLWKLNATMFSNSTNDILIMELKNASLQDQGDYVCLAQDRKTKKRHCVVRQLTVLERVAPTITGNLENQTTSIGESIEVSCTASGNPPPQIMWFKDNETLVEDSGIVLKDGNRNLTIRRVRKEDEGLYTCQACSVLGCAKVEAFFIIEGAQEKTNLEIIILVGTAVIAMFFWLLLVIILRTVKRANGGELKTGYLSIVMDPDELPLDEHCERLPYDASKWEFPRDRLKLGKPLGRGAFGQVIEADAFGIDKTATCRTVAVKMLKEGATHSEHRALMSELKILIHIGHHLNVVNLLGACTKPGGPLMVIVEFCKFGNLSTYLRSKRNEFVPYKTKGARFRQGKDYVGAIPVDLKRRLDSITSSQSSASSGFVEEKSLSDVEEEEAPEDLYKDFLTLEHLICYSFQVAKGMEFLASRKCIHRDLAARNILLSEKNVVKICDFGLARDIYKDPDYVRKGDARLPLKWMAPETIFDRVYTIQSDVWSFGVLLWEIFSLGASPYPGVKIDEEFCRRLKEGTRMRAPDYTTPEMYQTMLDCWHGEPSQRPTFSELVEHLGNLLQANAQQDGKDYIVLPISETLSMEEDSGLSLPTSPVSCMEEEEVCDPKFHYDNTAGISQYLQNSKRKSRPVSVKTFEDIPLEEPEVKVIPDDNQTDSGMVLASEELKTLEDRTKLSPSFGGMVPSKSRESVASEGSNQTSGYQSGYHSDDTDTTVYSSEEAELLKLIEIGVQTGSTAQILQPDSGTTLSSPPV
Excerpt: The designed congeners were, also, subject to an in vitro investigation against VEGFR-2 in HCT-116 cells.
The four selected members were further assessed to measure their inhibitory activities against the VEGFR-2 enzyme following the protocol shown in Supplementary data.

TNF-α = test: In vitro immunomodulatory assay, TNF-α (ELISA) in HCT-116 cells; type: cell-based, human; settings: C-6 (21.8 µM), D-1 (3.08 µM), 48 h
Method: (§3) Compounds C-6 and D-1 were further assayed for their immunomodulatory effect on HCT-116 cells. Two immunity-related markers were measured namely, human tumour necrosis factor alpha (TNF-α), and interleukin 6 (IL6). Dexamethasone, a potent inhibitor of both TNF-α and IL6, was used as a positive control.
(§4) The level of TNF-α and IL6 in cell culture supernatants was assessed by the ELISA technique according to the reported procedure[50]^,[51].

IL6 = test: In vitro immunomodulatory assay, IL6 (ELISA) in HCT-116 cells; type: cell-based; settings: C-6 (21.8 µM), D-1 (3.08 µM), 48 h
Method: as §3, §4

BAX = BAX level in treated HCT-116 cells; type: cell-based
Method: (§5) Upregulation of the proapoptotic genes in addition to the downregulation of the anti-apoptotic ones, thus, confirmed the apoptotic behaviour of the designed compound.
(§6) Estimation of caspase-3 levels after treatment of cells with compound D-1 was performed according to the protocol described by M. Andersson et al.[42]. While Bax and Bcl-2 cellular levels were evaluated for D-1 in HCT-116 cells according to the reported protocol[43] (Supplementary data).

Bcl-2 = Bcl-2 level in treated HCT-116 cells; type: cell-based
Method: as §5, §6

caspase-8 = test: Caspase-8 concentration in treated HCT-116 cells; type: cell-based
HCT-116 cells [2] = test: Cell cycle analysis by flow cytometry in HCT-116 cells; type: cell-based; settings: HCT-116, 3.08 µM for 48 h
Excerpt: Aiming to obtain a further understanding of the mechanism that triggers the anticancer activity of D-1, the cell cycle progression was investigated using flow cytometry in HCT-116 cells.
Based on the protocol referred to by Léonce et al., the flow cytometric analysis for congener D-1 was done[19]^,[44–46] (Supplementary data).

HCT-116 cells [3] = test: Annexin-V/propidium iodide apoptosis assay in HCT-116 cells; type: cell-based; settings: HCT-116, 3.08 µM for 48 h
Method: Since the induction of apoptosis is a key determinant in the drug’s therapeutic outcome, the ability of the best cytotoxic member D-1 to induce apoptosis in colorectal carcinoma (HCT-116) cells was evaluated using Annexin-V/propidium iodide (PI) staining assay. […] The percentage of early and late apoptotic populations elevated from 0.7% and 1.73% in the untreated cells to 4.36% and 17.62% in the D-1 treated cells (Table 10 and Figures 11 and 12).
Annexin‐V‐FITC assay for compound D-1 on HCT-116 cells according to the reported procedure[15]^,[47–49] (Supplementary data).

`CC(=NNC(=O)c1cccnc1)c1ccc(NC(=O)c2cccnc2)cc1` [Compound A-1, N-(4–(1-(2-Nicotinoylhydrazineylidene)ethyl)phenyl)nicotinamide] showed an IC50 (HCT-116 cells [1]) of 34.9 ± 0.084 µM, an IC50 (HepG-2 cells) of 18.07 ± 0.052 µM and an IC50 (VEGFR-2) of 22.1 nM.

`CC(=NNC(=O)c1ccccc1)c1ccc(NC(=O)c2cccnc2)cc1` [Compound B-1, N-(4–(1-(2-Benzoylhydrazineylidene)ethyl)phenyl)nicotinamide] was tested, and the IC50 (HCT-116 cells [1]) was 19.6 ± 0.052 µM, the IC50 (HepG-2 cells) was 17.4 ± 0.05 µM and the IC50 (VEGFR-2) was 80 nM.

With `CC(=NO)c1ccc(NC(=O)c2cccnc2)cc1` [Compound C-6, N-(4–(1-(Hydroxyimino)ethyl)phenyl)nicotinamide] the IC50 (HCT-116 cells [1]) was 21.8 ± 0.057 µM, the IC50 (HepG-2 cells) was 15.9 ± 0.045 µM and the IC50 (VEGFR-2) was 15.7 nM. For the same molecule, the “% Inhibition of TNF-α” value (TNF-α) was 86.48% and the “% Inhibition of IL6” value (IL6) was 75.21%.

With `CC(=NNc1ccccc1)c1ccc(NC(=O)c2cccnc2)cc1` [Compound D-1, N-(4–(1-(2-Phenylhydrazineylidene)ethyl)phenyl)nicotinamide] the IC50 (HCT-116 cells [1]) was 3.08 ± 0.002 µM, the IC50 (HepG-2 cells) was 4.09 ± 0.005 µM and the “activity against HepG-2, fold more than sorafenib” value (HepG-2 cells; ratio of IC50 values versus sorafenib) was “about 1.2 fold”. For the same molecule, the IC50 (VEGFR-2) was 23.1 nM, the “increase of BAX expression level” value (BAX; HCT-116 cells, versus control) was 9.52 fold and the BAX (BAX; treated HCT-116 cells) was 401.79 pg/mL. For the same molecule, the “decrease of Bcl-2 level to” value (Bcl-2; HCT-116 cells, versus control) was 0.23 fold, the Bcl-2 (Bcl-2; treated HCT-116 cells) was 1.274 pg/mL and the “increase of caspase-8 level” value (caspase-8; HCT-116 cells, versus control) was 10.41 fold. For the same molecule, the Caspase-8 (caspase-8; treated HCT-116 cells) was 523.61 pg/mL, the “%G0-G1” value (HCT-116 cells [2]) was 41.26% and the “%G2-M” value (HCT-116 cells [2]) was 30.37%. For the same molecule, the “%Pre-G1” value (HCT-116 cells [2]) was 23.68%, the “%S” value (HCT-116 cells [2]) was 28.37% and the “Apoptosis Early” value (HCT-116 cells [3]; % given in Figure 11) was 4.36%. For the same molecule, the “Apoptosis Late” value (HCT-116 cells [3]; % given in Figure 11) was 17.62%, the “Apoptosis Total” value (HCT-116 cells [3]; % given in Figure 11) was 23.68% and the Necrosis (HCT-116 cells [3]; % printed in Figure 11) was 1.7%. For the same molecule, the “% Inhibition of TNF-α” value (TNF-α) was 91.19% and the “% Inhibition of IL6” value (IL6) was 85.64%.

For `C[C@@H]1C[C@H]2[C@@H]3CCC4=CC(=O)C=C[C@]4(C)[C@@]3(F)[C@@H](O)C[C@]2(C)[C@@]1(O)C(=O)CO` [Dexamethasone, reference compound], the “% Inhibition of TNF-α” value (TNF-α) was 82.47% and the “% Inhibition of IL6” value (IL6) was 93.15%.

In the case of `CNC(=O)c1cc(Oc2ccc(NC(=O)Nc3ccc(Cl)c(C(F)(F)F)c3)cc2)ccn1` [Sorafenib, sorafenib, reference compound], the IC50 (HCT-116 cells [1]) is reported as 7.28 ± 0.58 µM and the IC50 (HepG-2 cells) is reported as 5.28 ± 0.21 µM.
